Data on 3 compounds can be found in patent US20230293629A1, “METHODS FOR ATTENUATING RELEASE OF INFLAMMATORY MEDIATORS AND PEPTIDES USEFUL THEREIN” (BIOMARCK PHARMACEUTICALS LTD., priority 2006, published 2023).

Assay [1] relates to MARCKS phosphorylation in NHBE cells. The assay can be described thus: MARCKS phosphorylation in NHBE cells, radiolabeled immunoprecipitation assay. Particulars: 100 nM PMA, NHBE cells. The format is cell-based, human. The protocol: Radiolabeled Immunoprecipitation Assay—When labeling with [^32P]phosphate, cells were preincubated for 2 h in phosphate-free Dulbecco's modified Eagle's medium containing 0.2% bovine serum albumin and then labeled with 0.1 mCi/ml [^32P]orthophosphate (9000 Ci/mmol, PerkinElmer Life Sciences) for 2 h. For labeling with [^3H]myristic acid or 3H-amino acids, cells were incubated overnight in medium containing 50 μCi/ml [^3H]myristic acid (49 Ci/mmol, PerkinElmer Life Sciences) or 0.2 mCi/ml [^3H]leucine (159 Ci/mmol, PerkinElmer Life Sciences) plus 0.4 mCi/ml [^3H]proline (100 Ci/mmol, PerkinElmer Life Sciences). Following labeling, cells were exposed to stimulatory reagents for 5 min. When an inhibitor was used, cells were preincubated with the inhibitor for 15 min prior to stimulation. At the end of the treatments, cells were lysed in a buffer containing 50 mM Tris-HCl (pH 7.5), 150 mM NaCl, 1 mM EDTA, 10% glycerol, 1% Nonidet P-40, 1 mM phenylmethylsulfonyl fluoride, 1 mM benzamidine, 10 μg/ml pepstatin A, and 10 μg/ml leupeptin. Trichloroacetic acid precipitation and scintillation counting may determine the radiolabeling efficiency in each culture. Immunoprecipitation of MARCKS protein was carried out according to the method of Spizz and Blackshear using cell lysates containing equal counts/min. Spizz et al., J. Biol. Chem. 271, 553-562 (1996). Precipitated proteins were resolved by 8% SDS-polyacrylamide gel electrophoresis and visualized by autoradiography. Anti-human MARCKS antibody (2F12) and nonimmune control antibody (6F6) were used in this assay.
To assess MARCKS or MARCKS-associated protein complexes in different subcellular fractions, radiolabeled and treated cells were scraped into a homogenization buffer (50 mM Tris-HCl (pH 7.5), 10 mM NaCl, 1 mM EDTA, 1 mM phenylmethylsulfonyl fluoride, 1 mM benzamidine, 10 μg/ml pepstatin A, 10 μg/ml leupeptin) and then disrupted by nitrogen cavitation (800 pounds/square inch for 20 min at 4° C.). Cell lysates were centrifuged at 600×g for 10 min at 4° C. to remove nuclei and unbroken cells. Post-nuclear supernatants were separated into membrane and cytosol fractions by ultracentrifugation at 400,000×g for 30 min at 4° C. The membrane pellet was solubilized in the lysis buffer by sonication. Immunoprecipitation was then carried out as described above.

The test system of a further assay is NK-92 cells. The assay can be described thus: PMA-stimulated granzyme release from NK-92 cells (BLT hydrolysis). The assay is classed as cell-based, human. Particulars: 50 μM test peptide, two hour incubation with 100 nM PMA. The protocol: Three types of human leukocyte cell lines, specifically the promyelocytic cell line HL-60 clone 15, the monocytic cell line U937, and the lymphocyte natural killer cell line NK-92 were purchased from American Type Culture Collection (ATCC; Rockville, MD). HL-60 clone 15 cells (ATCC CRL-1964) were maintained in medium consisting of RPMI 1640 with L-glutamine supplemented with 10% heat-inactivated fetal bovine serum (Gibco; Invitrogen Co., Carlsbad, CA), 50 IU/ml penicillin, 50 μg/mL streptomycin, and 25 mM HEPES buffer, pH 7.8, at 37° C. in an atmosphere containing 5% CO2. […] Viability of cells harvested for experiments was assessed by trypan blue exclusion and populations of cells with viability >95% were used. […]
For measurements of released MPO from neutrophils and released lysozyme from U937 cells, we were able to quantify secretion by using as standards human MPO and […], respectively. For released EPO from HL-60 clone 15 cells and for released granzyme from NK-92 cells, no standards were available to use for quantification. […] To measure intracellular EPO in HL-60 clone 15 cells and intracellular granzyme in NK-92 cells, appropriate aliquots of 0.1% triton X-100-lysed cells were taken for quantification of intracellular granule proteins as described below. All treatments were expressed as percentage of control to minimize variability between cultures. […]

Where a SMILES comes first, the peptide text is derived from it. The star is where a group is joined. Myristoyl = CCCCCCCCCCCCCC(=O)*

On to `CCCCCCCCCCCCCC(=O)O[C@@H]1[C@@H](C)[C@@]2(O)[C@@H](C=C(CO)C[C@]3(O)C(=O)C(C)=C[C@@H]23)[C@@H]2C(C)(C)[C@]12OC(C)=O` [PMA, phorbol 12-myristate 13-acetate], for which, in assay [1], the “increase in MARCKS phosphorylation” value is listed as 3-4 fold. `CCCCCCCCCCCCCC(=O)NCC(=O)N[C@H](C(=O)N[C@@H](C)C(=O)N1CCC[C@H]1C(=O)N[C@@H](C)C(=O)N[C@@H](C)C(=O)N[C@@H](CCC(=O)O)C(=O)NCC(=O)N[C@@H](C)C(=O)NCC(=O)N[C@@H](C)C(=O)N[C@@H](CCC(=O)O)C(=O)N[C@H](C(=O)N[C@@H](CCCCN)C(=O)N[C@@H](CCCNC(=N)N)C(=O)N[C@@H](C)C(=O)N[C@@H](CO)C(=O)N[C@@H](C)C(=O)N[C@@H](CCC(=O)O)C(=O)N[C@@H](C)C(=O)N[C@@H](CCCCN)C(=O)N[C@@H](CCC(N)=O)C(=O)N[C@@H](C)C(=O)N[C@@H](Cc1ccccc1)C(=O)O)C(C)C)[C@@H](C)O` [RNS, reference compound] (Myristoyl-GTAPAAEGAGAEVKRASAEAKQAF-OH; C-terminus assumed): the “% Inhibition Granzyme” value in the assay on NK-92 cells was 29.5%. Take `CCCCCCCCCCCCCC(=O)NCC(=O)N[C@@H](C)C(=O)N[C@@H](CCC(N)=O)C(=O)N[C@@H](Cc1ccccc1)C(=O)N[C@@H](CO)C(=O)N[C@@H](CCCCN)C(=O)N[C@H](C(=O)N[C@@H](C)C(=O)N[C@@H](C)C(=O)N[C@@H](CCCCN)C(=O)NCC(=O)N[C@@H](CCC(=O)O)C(=O)N[C@@H](C)C(=O)N[C@@H](C)C(=O)N[C@@H](C)C(=O)N[C@@H](CCC(=O)O)C(=O)N[C@@H](CCCNC(=N)N)C(=O)N1CCC[C@H]1C(=O)NCC(=O)N[C@@H](CCC(=O)O)C(=O)N[C@@H](C)C(=O)N[C@@H](C)C(=O)N[C@H](C(=O)N[C@@H](C)C(=O)O)C(C)C)[C@@H](C)O` [MANS] (Myristoyl-GAQFSKTAAKGEAAAERPGEAAVA-OH; C-terminus assumed): the “% Inhibition Granzyme” value in the assay with NK-92 cells is 76.0%.
